Results taken from patent publication US5716797A, “Stable two-part reagent for the measurement of creatine kinase activity” (Wako Pure Chemical Industries, Ltd., priority 1995, dated 1998).
Values joined by “and” are separate entries in the source; they are usually repeats but may differ in a detail not shown here. Equal entries are not always repeated. Where two headings read alike, the source gives them in different places.

Assays:
[1] = molecular target: T1, creatine kinase (CK) in human serum (Homo sapiens, UniProt P06732); experiment: Inhibitory effect of oxidized products of SH compounds on CK activity (HK/G6PDH UV method, NAC 26 mM as reactivator); format: biochemical; settings: for CK activity value / CK activity value, Average: 5 mM SH compound oxidized product; for CK activity value: NAC 26 mM, 37° C.; for CK activity value, Average: average of 5 samples; for activity at 5000 µM: read-out: CK activity, relative value
T1 construct: Five fresh human serum samples were used; from tissue; host or cells: fresh human serum
Description: Investigation on the inhibitory effect of oxidized products of SH compounds on CK activity
Thus, oxidized products of the SH compounds, respectively, were obtained.
NAC (26 mM) as CK reactivator, each 5 mM of SH compound oxidized product obtained above, 2.6 mM of ADP, 3.9 u/ml of HK (available from Oriental Yeast Co., Ltd.), 8.0 u/ml of G6PDH (available from Oriental Yeast Co., Ltd.), 2.6 mM of NADP, 21 mM of glucose, 10 mM of magnesium acetate, 6.5 mM of AMP, 0.013 mM of APSA, 0.1% (w/v) of sodium azide and 2 mM of EDTA-2Na were dissolved in 128 mM imidazole-acetate buffer (pH 6.7). The thus obtained solutions were adjusted to pH 6.7 with sodium hydroxide to obtain enzyme solutions.
An enzyme solution containing no SH compound oxidized product was prepared as a control standard solution.
(§1) Five fresh human serum samples were used.
(§2) To 8 μl of each sample was added 320 μl of each enzyme solution, followed by preincubation for 5 minutes. Then, 80 μl of the substrate solution was added to initiate the reaction and the change of absorbance per minute was measured for 3 minutes from 2 minutes after the addition of the substrate solution. The CK activity value was calculated from the molecular extinction coefficient of the NADPH produced.
(§3) As a measuring apparatus, an Autoanalyzer Hitachi Model 7150 was used, and the measurement was carried out at 37° C. by use of dual wavelength (λ1 =405 nm, λ2 =340 nm).
Tables 2 and 3 show the CK activity values of the 5 samples in each case and the average thereof.

[2] = tested on: creatine kinase (CK) in human serum; experiment: CK activity measured with enzyme solutions containing SH compounds as CK reactivator, fresh and after 1 month of storage (Example 1 / Comparative Example 1); format: biochemical; settings: for CK activity, relative value: NAC just after preparation = 100%
Description: The resulting solution was adjusted to pH 6.7 with sodium hydroxide and stored at a predetermined temperature for a predetermined period. The thus obtained solution were used as enzyme solutions.
as §1, §2, §3
Enzyme solutions were prepared in the same manner as in Example 1 by use of the same reagents as in Example 1 except for using a predetermined concentration(s) of one or two SH compounds properly selected from the above-mentioned CK reactivators, in place of the CK reactivator(s) used in Example 1.
CK activity was measured in the same manner as in Example 1.

[3] = average with enzyme solution containing no SH compound oxidized product = 100%, 5 mM oxidized product
[4] = Sample 1, enzyme solution just after preparation, TG 100 mM, 2ME 26 mM, 2MES 26 mM, NAC 26 mM
[5] = Sample 2, enzyme solution just after preparation, TG 100 mM, 2ME 26 mM, 2MES 26 mM, NAC 26 mM
[6] = Sample 2, enzyme solution stored at 10° C. for 1 month, TG 100, 2ME 26, 2MES 26, NAC 26, L-cysteine 6.5, GSH 12, TDG 5, DTT 6.5 mM
[7] = Sample 2, enzyme solution stored at 20° C. for 1 month, TG 100, 2ME 26, 2MES 26, NAC 26, L-cysteine 6.5, GSH 12, TDG 5, DTT 6.5 mM
[8] = Sample 3, enzyme solution just after preparation, TG 100 mM, 2ME 26 mM, 2MES 26 mM, NAC 26 mM
[9] = Sample 3, enzyme solution stored at 10° C. for 1 month, TG 100, 2ME 26, 2MES 26, NAC 26, L-cysteine 6.5, GSH 12, TDG 5, DTT 6.5 mM
[10] = Sample 3, enzyme solution stored at 20° C. for 1 month, TG 100, 2ME 26, 2MES 26, NAC 26, L-cysteine 6.5, GSH 12, TDG 5, DTT 6.5 mM
[11] = Sample 4, enzyme solution just after preparation, TG 100 mM, 2ME 26 mM, 2MES 26 mM, NAC 26 mM
[12] = Sample 4, enzyme solution stored at 10° C. for 1 month, TG 100, 2ME 26, 2MES 26, NAC 26, L-cysteine 6.5, GSH 12, TDG 5, DTT 6.5 mM
[13] = Sample 4, enzyme solution stored at 20° C. for 1 month, TG 100, 2ME 26, 2MES 26, NAC 26, L-cysteine 6.5, GSH 12, TDG 5, DTT 6.5 mM
[14] = Sample 5, enzyme solution just after preparation, TG 100 mM, 2ME 26 mM, 2MES 26 mM, NAC 26 mM
[15] = Sample 5, enzyme solution stored at 10° C. for 1 month, TG 100, 2ME 26, 2MES 26, NAC 26, L-cysteine 6.5, GSH 12, TDG 5, DTT 6.5 mM
[16] = Sample 5, enzyme solution stored at 20° C. for 1 month, TG 100, 2ME 26, 2MES 26, NAC 26, L-cysteine 6.5, GSH 12, TDG 5, DTT 6.5 mM
[17] = average of 5 samples, enzyme solution just after preparation, TG 100 mM, 2ME 26 mM, 2MES 26 mM, NAC 26 mM
[18] = average of 5 samples, enzyme solution stored at 10° C. for 1 month, TG 100, 2ME 26, 2MES 26, NAC 26, L-cysteine 6.5, GSH 12, TDG 5, DTT 6.5 mM
[19] = average of 5 samples, enzyme solution stored at 20° C. for 1 month, TG 100, 2ME 26, 2MES 26, NAC 26, L-cysteine 6.5, GSH 12, TDG 5, DTT 6.5 mM
[20] = enzyme solution just after preparation
[21] = enzyme solution stored at 10° C. for 1 month
[22] = enzyme solution stored at 20° C. for 1 month
[23] = Sample 1, enzyme solution stored at 20° C. for 1 month, TG 100, 2ME 26, 2MES 26, NAC 26, L-cysteine 6.5, GSH 12, TDG 5, DTT 6.5 mM
[24] = Sample 1, enzyme solution stored at 10° C. for 1 month, TG 100, 2ME 26, 2MES 26, NAC 26, L-cysteine 6.5, GSH 12, TDG 5, DTT 6.5 mM

T1 sequence (P06732 whole entry): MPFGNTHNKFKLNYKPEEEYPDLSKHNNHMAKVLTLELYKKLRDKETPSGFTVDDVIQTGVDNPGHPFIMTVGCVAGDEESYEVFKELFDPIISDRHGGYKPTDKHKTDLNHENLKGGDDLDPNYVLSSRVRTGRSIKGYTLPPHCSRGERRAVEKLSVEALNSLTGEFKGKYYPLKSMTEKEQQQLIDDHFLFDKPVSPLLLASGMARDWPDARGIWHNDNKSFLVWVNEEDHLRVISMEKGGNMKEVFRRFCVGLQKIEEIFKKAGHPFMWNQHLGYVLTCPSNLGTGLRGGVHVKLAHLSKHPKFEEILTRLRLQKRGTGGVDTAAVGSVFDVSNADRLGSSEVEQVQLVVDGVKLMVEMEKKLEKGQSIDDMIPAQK

| Structure (SMILES) | inhibition of CK activity by oxidized product ([1]; 5 mM oxidized product) | CK activity value ([1]; Sample 1 (fresh human serum)) [IU/l.] | CK activity value ([1]; Sample 2) [IU/l.] | CK activity value ([1]; Sample 3) [IU/l.] | CK activity value ([1]; Sample 4) [IU/l.] | CK activity value ([1]; Sample 5) [IU/l.] | CK activity value, Average [1] [IU/l.] | activity at 5000 µM [1, 3] [%] | CK activity value [2, 6] [IU/l] | CK activity value [2, 7] [IU/l] | CK activity value [2, 9] [IU/l] | CK activity value [2, 10] [IU/l] | CK activity value [2, 12] [IU/l] | CK activity value [2, 13] [IU/l] | CK activity value [2, 15] [IU/l] | CK activity value [2, 16] [IU/l] | CK activity value, Average [2, 18] [IU/l] | CK activity value, Average [2, 19] [IU/l] | CK activity, relative value [2, 21] [%] | CK activity, relative value [2, 22] [%] | further results |
| --- | --- | --- | --- | --- | --- | --- | --- | --- | --- | --- | --- | --- | --- | --- | --- | --- | --- | --- | --- | --- | --- |
| O[C@@H]1CSSC[C@H]1O (relative stereo) [DTT oxidized product] | hardly inhibited CK activity | 150 | 407 | 108 | 319 | 99 | 216 | 95.9 |  |  |  |  |  |  |  |  |  |  |  |  |  |
| O=c1ccnc(SSc2nccc(=O)[nH]2)[nH]1 [2-Thiouracil oxidized product] | hardly inhibited CK activity | 143 | 407 | 106 | 314 | 97 | 213 | 94.6 |  |  |  |  |  |  |  |  |  |  |  |  |  |
| OCCSSCCO [2ME oxidized product] | hardly inhibited CK activity | 155 | 427 | 113 | 332 | 101 | 226 |  |  |  |  |  |  |  |  |  |  |  |  |  | activity at 5000 µM [1]: 100% |
| OCCS [2ME, 2-mercaptoethanol] |  |  |  |  |  |  |  |  | 559 | 559 | 155 | 155 | 59 | 58 | 89 | 89 | 210 | 209 | 102.8 | 102.4 | retaining CK-reactivating ability for a long period of time in an aqueous solution [2]: capable of retaining CK-reactivating ability for a long period of time; CK activity value [2, 4]: 186 IU/l; CK activity value [2, 5]: 554 IU/l; CK activity value [2, 8]: 151 IU/l; CK activity value [2, 11]: 58 IU/l; CK activity value [2, 14]: 89 IU/l; CK activity value, Average [2, 17]: 208 IU/l; CK activity, relative value [2, 20]: 101.9% |
| O=S(=O)(O)CCSSCCS(=O)(=O)O [2MES oxidized product] | hardly inhibited CK activity | 155 | 418 | 114 | 335 | 98 | 224 | 99.3 |  |  |  |  |  |  |  |  |  |  |  |  |  |
| O=S(=O)(O)CCS [2MES, 2-mercaptoethanesulfonic acid] |  |  |  |  |  |  |  |  | 548 | 542 | 147 | 148 | 55 | 55 | 85 | 87 | 204 | 203 | 99.9 | 96.3 | CK activity value [2]: 184 IU/l; retaining CK-reactivating ability for a long period of time in an aqueous solution [2]: capable of retaining CK-reactivating ability for a long period of time; CK activity value [2, 4]: 184 IU/l; CK activity value [2, 23]: 181 IU/l; CK activity value [2, 5]: 553 IU/l; CK activity value [2, 8]: 151 IU/l; CK activity value [2, 11]: 58 IU/l; CK activity value [2, 14]: 88 IU/l; CK activity value, Average [2, 17]: 207 IU/l; CK activity, relative value [2, 20]: 101.4% |
| Nc1cc(O)nc(SSc2nc(N)cc(O)n2)n1 [AHMP oxidized product] | hardly inhibited CK activity | 161 | 407 | 106 | 322 | 97 | 217 | 96 |  |  |  |  |  |  |  |  |  |  |  |  |  |
| Nc1nc(SSc2nc(N)nc3c2ncn3[C@@H]2O[C@H](CO)[C@@H](O)[C@H]2O)c2ncn([C@@H]3O[C@H](CO)[C@@H](O)[C@H]3O)c2n1 [AMPR oxidized product] |  | 0 | 1 | 0 | 1 | 0 | 0 | 0.2 |  |  |  |  |  |  |  |  |  |  |  |  |  |
| N[C@@H](CCC(=O)N[C@@H](CS)C(=O)NCC(=O)O)C(=O)O [GSH, reduced-form glutathione] |  |  |  |  |  |  |  |  |  |  |  |  |  |  |  |  |  |  | 94.1 | 81.9 | CK activity value, Average [2]: 192 IU/l and 167 IU/l |
| N[C@@H](CS)C(=O)O [L-cysteine] |  |  |  |  |  |  |  |  | 437 | 175 | 110 | 33 | 42 | 12 | 63 | 19 | 158 | 58 | 77.5 | 28.4 | CK activity value [2, 24]: 140 IU/l; CK activity value [2, 23]: 52 IU/l |
| O.O.OC[C@H]1O[C@@H](S)[C@H](O)[C@@H](O)[C@@H]1O.[Na].[Na] [TDG, 1-thio-β-D-glucose disodium salt dihydrate] |  |  |  |  |  |  |  |  | 3 | 4 | 1 | 2 | 0 | 0 | 0 | 0 | 1 | 1 | 0.4 | 0.6 | retaining CK-reactivating ability for a long period of time in an aqueous solution [2]: incapable of retaining CK-reactivating ability in a solution for a long period of time; CK activity value [2, 24]: 0 IU/l; CK activity value [2, 23]: 0 IU/l |
